Experimental findings from patent US20100210564A1, “DRUG OR FOOD CONTAINING A PEPTIDE” (Kyoto University, priority 2009, published 2010) are described below.

Entries after “also recorded” stand apart in the source; their conditions may differ.

Assay [1] relates to mice. The assay can be described thus: Elevated plus-maze test, anxiolytic effects. The format is in vivo, mouse. To be noted: for Minimum Effective Dose (mg/kg, i.p.): elevated plus-maze, ( ) = showed tendency, — = no anxiolytic effects. How it is done: In the present invention, the anxiolytic effects can be evaluated by the elevated plus-maze test, developed and widely used as a method for evaluating anxiety-related behaviors to screen anxiolytic drugs (FIG. 1). Specifically, the test is performed as follows: a candidate substance for an anxiolytic drug is orally or intraperitoneally administered to a mouse; 30 minutes after the administration, the mouse is placed in an elevated plus-maze; and the potency of the anxiolytic effects is evaluated based on the number of entries to the open arms and a change in the times spent on the open arms.
(§1) The elevated plus-maze (EPM) consisted of two open arms (25×5 cm) and two closed arms (25×5×15 cm), which were joined to a central platform 50 cm high above the floor (see FIG. 1). Because the closed arms were surrounded by fences, a mouse could safely walk in the closed arms irrespective of their elevated position. On the other hand, because the open arms were not surrounded by fences, a mouse walking along the open arms would feel anxious that it might fall down from the elevated position. Therefore, the more time the mouse spent in the open arms, or the greater the number of entries to the open arms, the less anxious the mouse was feeling; thus, the anxiolytic activity was determined based on these indices.
(§2) A mouse was placed on a portion of the central platform facing one of the open arms, and the test was started. During a test time of 5 minutes, the cumulative time spent in the open arms (abbr.: time in open arms), the number of visits to the open arms (abbr.: visit to open arms), and the total number of visits to any of the arms (abbr.: total visits) were recorded. The percentage of the time spent in the open arms and the percentage of the number of visits to the open arms were calculated as indices of anxiety.
The data obtained from the elevated plus-maze test were represented as the means±SEM. The data were analyzed by 1-way or 2-way ANOVA, followed by the Fisher test for multiple comparisons.
(§3) Each of YL (Example 1 and Comparative Example 3), FL (Example 2), YI (Example 3), FI (Example 4), LY (Example 5), LF (Example 6), IY (Example 7), IF (Example 8), YLY (Example 9), YLQ (Example 10), LYL (Example 11), YLYEIAR (Example 12), YV (Example 13), WL (Example 14), LW (Example 15), HL (Example 16), Y (Comparative Example 1), and Y, L (Comparative Example 2) dissolved in physiological saline was administered intraperitoneally (i.p.) or orally (p.o.) to mice (n=3 to 14) in the amounts shown in each figure before the mice were placed in the elevated plus-maze. The percentage of the time spent in the open arms, the percentage of the number of visits to the open arms, and the total number of visits to the arms (total visits) were compared among groups administered each peptide or amino acid, and a control group (0 mg/kg). YL was investigated for its anxiolytic effects by the open-field test. The results are shown in FIGS. 2 to 14, FIGS. 22 to 27, and Table 3.

In assay [2] the test system is mice. The assay can be described thus: Elevated plus-maze test, YL in combination with antagonists for various receptors. The format is in vivo, mouse. The conditions noted are these: in words.
Text: as §1, §2

Assay [3] deals with mice. The experiment in a line: Open-field test. The format is in vivo, mouse. On the procedure:
The open-field used in this experiment was a cylindrical gray apparatus with a diameter of 60 cm and a height of 50 cm, which is divided into 25 sections with black lines. […] However, once a mouse is administered an anxiolytic drug, the time spent in the circle at the center and the number of entries thereto increase.
as §3

The target in another assay is ACE (Homo sapiens, UniProt P12821). The assay can be described thus: ACE inhibitory effects. The format is biochemical. To be noted: comparison of YL with IY.
Sequence of ACE (P12821 30-1306, species assumed): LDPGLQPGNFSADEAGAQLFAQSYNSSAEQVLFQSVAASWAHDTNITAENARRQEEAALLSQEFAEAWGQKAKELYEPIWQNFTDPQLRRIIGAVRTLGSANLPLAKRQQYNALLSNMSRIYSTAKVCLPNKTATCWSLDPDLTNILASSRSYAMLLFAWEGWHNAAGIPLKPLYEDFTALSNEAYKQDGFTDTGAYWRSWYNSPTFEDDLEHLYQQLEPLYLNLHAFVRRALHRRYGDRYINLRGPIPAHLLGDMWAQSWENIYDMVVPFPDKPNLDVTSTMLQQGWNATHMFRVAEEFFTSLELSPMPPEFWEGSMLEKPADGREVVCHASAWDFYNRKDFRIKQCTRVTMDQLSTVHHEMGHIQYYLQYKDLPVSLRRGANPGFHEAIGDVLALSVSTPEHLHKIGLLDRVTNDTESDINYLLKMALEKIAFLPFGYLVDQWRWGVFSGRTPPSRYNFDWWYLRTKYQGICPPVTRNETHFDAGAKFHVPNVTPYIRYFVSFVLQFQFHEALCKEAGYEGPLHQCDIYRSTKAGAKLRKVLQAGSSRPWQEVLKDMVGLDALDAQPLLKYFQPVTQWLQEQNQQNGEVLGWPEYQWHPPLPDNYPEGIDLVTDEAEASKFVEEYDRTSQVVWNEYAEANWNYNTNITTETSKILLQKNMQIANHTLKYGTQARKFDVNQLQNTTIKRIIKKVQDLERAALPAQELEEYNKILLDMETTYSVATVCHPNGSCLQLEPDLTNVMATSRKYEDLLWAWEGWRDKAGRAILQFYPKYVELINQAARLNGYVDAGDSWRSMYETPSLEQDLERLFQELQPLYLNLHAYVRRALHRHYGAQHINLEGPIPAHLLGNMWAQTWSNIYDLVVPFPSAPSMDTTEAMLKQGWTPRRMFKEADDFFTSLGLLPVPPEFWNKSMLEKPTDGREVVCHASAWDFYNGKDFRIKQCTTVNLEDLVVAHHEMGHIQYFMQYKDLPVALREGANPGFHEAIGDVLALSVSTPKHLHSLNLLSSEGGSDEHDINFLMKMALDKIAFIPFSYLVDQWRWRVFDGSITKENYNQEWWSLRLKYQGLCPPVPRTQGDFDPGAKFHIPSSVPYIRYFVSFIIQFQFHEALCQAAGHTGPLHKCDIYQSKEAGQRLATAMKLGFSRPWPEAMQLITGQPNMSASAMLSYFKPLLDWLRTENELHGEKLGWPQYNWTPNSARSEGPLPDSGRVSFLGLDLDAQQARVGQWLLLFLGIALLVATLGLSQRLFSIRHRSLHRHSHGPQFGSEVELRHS
The mark [4] stands for this setting: 0.1 mg/kg, i.p., mean ± SEM (n = 6), p < 0.05 vs cont.

Regarding Ile-Tyr [IY], the “Minimum Effective Dose (mg/kg, i.p.)” value with mice [1] was determined as 10 mg/kg.

For `Oc1ccc2c3c1O[C@H]1c4[nH]c5ccccc5c4C[C@@]4(O)[C@@H](C2)N(CC2CC2)CC[C@]314` [naltrindole], the “effect of the antagonist/inhibitor on the anxiolytic effects of the peptides of the invention” value (shortened to “effect of the antagonist/inhibitor”) in the assay with mice [2] is “not blocked”.

Consider `C=CCN1CC[C@]23c4c5ccc(O)c4O[C@H]2C(=O)CC[C@@]3(O)[C@H]1C5` [naloxone], for which, in the assay on mice [2], the “effect of the antagonist/inhibitor” value was “not blocked”.

For the molecule Trp-Leu [WL], the “Minimum Effective Dose (mg/kg, i.p.)” value with mice [1] turned out to be 0.1 mg/kg.

Regarding “YLYEIAR [peptide; Y Tyr, L Leu, E Glu, I Ile, A Ala, R Arg]”, the “Minimum Effective Dose (mg/kg, i.p.)” value in the assay on mice [1] is given as 0.3 mg/kg.

For `CCOC(=O)c1ncn2c1CN(C)C(=O)c1cc(F)ccc1-2` [flumazenil], the “effect of the antagonist/inhibitor” value in the assay on mice [2] was “significantly blocked”.

With `COc1ccccc1N1CCN(CC(C(=O)NC(C)(C)C)c2ccccc2)CC1` (stereo not shown) [WAY100135], the “effect of the antagonist/inhibitor” value in the assay on mice [2] is given as “blocked”.

For the molecule His-Leu [HL], the “Minimum Effective Dose (mg/kg, i.p.)” value with mice [1] is 0.1 mg/kg.

As for `OC(CCCN1CCN(c2ncc(F)cn2)CC1)c1ccc(F)cc1` (stereo not shown) [BMY14802], in the assay with mice [2], the “effect of the antagonist/inhibitor” value is given as “not blocked”.

`COc1ccc2c(c1)c(CC(=O)O)c(C)n2C(=O)c1ccc(Cl)cc1` [indomethacin]: the “effect of the antagonist/inhibitor” value in the assay on mice [2] is “not blocked”.

Turning to Phe-Leu [FL], the “Minimum Effective Dose (mg/kg, i.p.)” value in the assay with mice [1] is listed as 0.1 mg/kg.

For `N[C@@H](Cc1ccc(O)cc1)C(=O)O` [Y, Tyr, reference compound], the “anxiolytic effects in the elevated plus-maze experiment (in words)” value (from here on “anxiolytic effects … (in words)”) in the assay with mice [1] is on record as “no anxiolytic effects”.

Consider `CC(C)C[C@H](N)C(=O)O` [L, Leu, reference compound], for which the “anxiolytic effects … (in words)” value in the assay with mice [1] is on record as “no anxiolytic effects”.

For the molecule Tyr-Leu [YL], in the assay on mice [1], the “anxiolytic effects … (in words)” value was “stronger anxiolytic effects; also recorded: at least equivalent to those of diazepam” and the “Minimum Effective Dose (mg/kg, i.p.)” value was 0.1 mg/kg. In addition, in the assay on mice [3] (setting [4]), the “Time in Center Circle (%)” value worked out at 2.06 ± 0.234 % and the “Visits to Center Circle (%)” value worked out at 3.02 ± 0.404 %. For the same molecule, in the assay on mice [3] (mice), the “efficacy in the open-field test (in words)” value is listed as “demonstrated its efficacy”. The ACE inhibitory effects entry on ACE was “weaker than those of IY”.
